# According to publication PMC7217877, “N-AS-triggered SPMs are direct regulators of microglia in a model of Alzheimer’s disease” (Nature Communications, 2020):
# “And” between values parts separate entries of the source, which are not always exact repeats. Equal values may be shown once.
# System: APP/PS1 mice
# Assay: ac-S565 COX2 in microglia and neuron of treated mice (immunofluorescence, western blot, Fig 4c,d)
# Format: in vivo, mouse
# Conditions: APP/PS1 + N-AS, individual values
# Text: Adult neurons and microglia were isolated from the mice brain as previously described. In brief, the cortex of WT (1, 3, 5, or 9-months-old), APP/PS1 (1, 3, 5, or 9-months-old), APP/PS1 treated with N-AS (9-months-old) or APP/PS1 treated with aspirin (9-months-old) mice were minced in Hibernate A (Gibco)/B27 (Invitrogen) medium and dissociated using papain (Worthington) solution. After tissue trituration, cells were separated by Optiprep (Sigma-Aldrich) density gradient centrifugation. The purity of the fractionated neurons and microglia were acutely confirmed by neuronal (NeuN, mouse, 1:200, Millipore, MAB377) and microglial (Iba1, rabbit, 1:1000, Wako, 019-19941) markers and the isolated neurons and microglia were acutely analyzed for the acetylation assay and lipid mediators metabololipidomics.
# Thioflavin S (Sigma-Aldrich) staining was carried out according to previously described procedures. We used 6E10 (mouse, 1:100, Signet, SIG39300), anti-20G10 (mouse, 1:1000, provided by D. R. Howlett, GlaxoSmithKline, Harlow, Essex, UK) for Aβ42, anti-G30 (rabbit, 1:1000, provided by D. R. Howlett) for Aβ40, SMA (mouse, 1:400, Sigma-Aldrich, A2547), AT8 (mouse, 1:500, Thermo Fisher Scientific, MN1020), Caspase-3 (mouse, 1:200, Novus Biologicals, NB100-56708), ac-S565 (rabbit, 1:100), COX2 (mouse, 1:250, Thermo Fisher Scientific, 35-8200), Iba1 (rabbit, 1:500, Wako, 019-19941 and goat, Abcam, ab5076), NeuN (mouse, 1:500, Millipore, MAB177), GFAP (rabbit, 1:500, Dako, N1506 and chicken, 1:500, Abcam, ab4674), and Lamp1 (mouse, 1:200, Abcam, ab24170). The sections were analyzed with a laser-scanning confocal microscope (FV3000; Olympus) or with a BX51 microscope (Olympus). MetaMorph software (Molecular Devices) was used to quantification. Three-dimensional reconstruction of microglia was recorded and analyzed using IMARIS software (Bitplane)[11]. […]
# Samples were lysed in RIPA buffer (Cell signaling Technologies), then subjected to SDS-PAGE and transferred to a nitrocellulose membrane. […] We performed densitometric quantification using the ImageJ software (National Institutes of Health). […]
structure (smiles),measurement,setting,value
"CCCCCCCCCCCCC/C=C/[C@@H](O)[C@H](CO)NC(C)=O [N-AS, N-((2S,3R,E)-1,3-Dihydroxyoctadec-4-en-2-yl)acetamide]","microglia (Iba1) with ac-S565 and COX2 in cortex, quantification (Fig 4c)",,2.146 and 2.677 and 1.427 and 1.497 and 1.3659 and 1.3538
same,"ac-S565 / total COX2, western blot (Fig 4d)",Microglia,1.271 and 0.7861 and 0.8284 and 0.7309 and 1.0567 and 1.371
same,"ac-S565 / total COX2, western blot (Fig 4d)",Neuron,0.9062 and 0.3691 and 0.5034 and 0.9834 and 0.3378 and 0.4586
